Consider 3 compounds from ChEMBL document CHEMBL1156989, “Discovery of novel small molecule orally bioavailable C-X-C chemokine receptor 4 antagonists that are potent inhibitors of T-tropic (X4) HIV-1 replication” (J Med Chem, 2010).

The subject of data set [1] is Human immunodeficiency virus 1. Briefly: Antiviral activity against HIV1 3B infected in human MT-4 cells assessed as inhibition of virus-induced cytopathicity. Conditions: Human immunodeficiency virus 1, 3B. (In general: Damage to the host cells serves as the signal in cytopathic effect assays.)
Data set [2] has as its target C-X-C chemokine receptor type 4 (Homo sapiens, UniProt P61073). Briefly: Inhibition of anti-CXCR4 12G5 monoclonal antibody to CXCR4 in human SUP-T1 cells pretreated for 30 mins by flow cytometry. The data set is classed as cell-based. (In flow cytometry, cells or beads pass a laser one at a time.)
For data set [3], the system named is Human immunodeficiency virus 1. Briefly: Antiviral activity against HIV1 NL4.3 infected in human PBMC assessed as inhibition of virus-induced cytopathicity. The data set is classed as functional, organism-based. Conditions: Human immunodeficiency virus 1, NL4.3.
Data set [4] has as its system Human immunodeficiency virus 1. Briefly: Ratio of IC90 for HIV1 NL4.3 infected in human PBMC to IC90 for HIV1 NL4.3 infected in human MT4 cells. The data set is classed as functional.
Data set [5] in a line: Cytotoxicity against human MT4 cells expressing CD4 and CXCR4 assessed as cell viability. Conditions: MT4 cells expressing CD4 and CXCR4.
Data set [6] deals with Human immunodeficiency virus 1. The data set is described as follows: Antiviral activity against HIV1 NL4.3 infected in human MT4 cells expressing CD4 and CXCR4 assessed as inhibition of virus-induced cytopathicity. It counts as functional, organism-based. Conditions: Human immunodeficiency virus 1, NL4.3, MT4.
Data set [7] deals with Human immunodeficiency virus 1. Briefly: Ratio of IC50 for HIV1 NL4.3 infected in human PBMC to IC50 for HIV1 NL4.3 infected in human MT4 cells. The data set is classed as functional.
For data set [8], the system named is Canis familiaris. The data set is described as follows: Volume of distribution in dog at 5 mg/kg, iv. It counts as ADME, organism-based, Canis lupus familiaris. More on the design: dose 5 mg/kg, route intravenous. Conditions: in vivo.
A short description of data set [9]: Oral bioavailability in dog at 25 mg/kg. The settings on record: in vivo. It counts as ADME, organism-based, Canis lupus familiaris.
The test system of data set [10] is Rattus norvegicus. Briefly: Volume of distribution in rat at 10 mg/kg, iv. The data set is classed as ADME, organism-based. Conditions: in vivo. More on the design: dose 10 mg/kg, route intravenous.
Data set [11] concerns Rattus norvegicus. The data set is described as follows: Half life in rat at 10 mg/kg, iv. It counts as ADME, organism-based. More on the design: dose 10 mg/kg, route intravenous. The settings on record: in vivo.
The target of data set [12] is T1, C-X-C chemokine receptor type 1 (Homo sapiens, UniProt P25024).
T1 sequence (P25024 whole entry): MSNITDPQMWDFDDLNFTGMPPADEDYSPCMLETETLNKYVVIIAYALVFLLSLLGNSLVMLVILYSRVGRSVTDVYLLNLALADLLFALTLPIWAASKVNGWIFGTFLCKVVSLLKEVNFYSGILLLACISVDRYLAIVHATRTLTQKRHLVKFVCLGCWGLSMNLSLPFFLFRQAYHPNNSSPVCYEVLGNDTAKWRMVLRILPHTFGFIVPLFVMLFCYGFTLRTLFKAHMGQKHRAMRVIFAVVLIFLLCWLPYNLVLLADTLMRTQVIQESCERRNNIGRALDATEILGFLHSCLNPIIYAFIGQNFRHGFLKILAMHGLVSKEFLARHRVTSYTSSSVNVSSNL
The data set is described as follows: Displacement of radiolabeled IL8 from CXCR1 receptor.

The target of data set [13] is T2, C-C chemokine receptor type 1 (Homo sapiens, UniProt P32246).
T2 sequence (P32246 whole entry): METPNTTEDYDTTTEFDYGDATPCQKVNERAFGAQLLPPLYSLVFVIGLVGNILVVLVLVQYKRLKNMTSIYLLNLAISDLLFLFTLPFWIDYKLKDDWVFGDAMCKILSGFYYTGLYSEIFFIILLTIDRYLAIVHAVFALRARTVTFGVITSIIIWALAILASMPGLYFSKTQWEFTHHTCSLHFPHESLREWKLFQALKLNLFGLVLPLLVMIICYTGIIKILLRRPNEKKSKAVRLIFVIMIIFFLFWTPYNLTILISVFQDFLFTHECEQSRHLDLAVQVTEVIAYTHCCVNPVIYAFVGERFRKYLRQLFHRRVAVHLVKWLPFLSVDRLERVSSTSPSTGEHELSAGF
The data set is described as follows: Displacement of radiolabeled MIP1alpha from CCR1 receptor.

Data set [14] can be described thus: Oral bioavailability in rat at 40 mg/kg. The data set is classed as ADME, organism-based. Conditions: in vivo.
The target in data set [15] is T3, C-X-C chemokine receptor type 2 (Homo sapiens, UniProt P25025).
T3 sequence (P25025 whole entry): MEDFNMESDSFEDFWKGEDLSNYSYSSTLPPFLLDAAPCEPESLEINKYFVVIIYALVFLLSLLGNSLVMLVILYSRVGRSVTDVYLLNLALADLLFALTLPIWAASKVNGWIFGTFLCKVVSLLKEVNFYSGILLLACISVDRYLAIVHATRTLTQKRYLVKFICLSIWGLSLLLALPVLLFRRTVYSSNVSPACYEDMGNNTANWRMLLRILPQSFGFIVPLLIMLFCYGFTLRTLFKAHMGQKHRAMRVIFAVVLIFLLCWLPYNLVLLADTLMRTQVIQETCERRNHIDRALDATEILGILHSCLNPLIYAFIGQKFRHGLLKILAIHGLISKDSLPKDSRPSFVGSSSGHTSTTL
The data set is described as follows: Displacement of radiolabeled IL8 from CXCR2 receptor.

The test system of data set [16] is Human immunodeficiency virus 1. The data set is described as follows: Antiviral activity against HIV1 3B infected in human MT4 cells assessed as inhibition of virus-induced cytopathicity in presence of 10% human serum. It counts as functional, organism-based. The settings on record: Human immunodeficiency virus 1, 3B.
The target in data set [17] is T4, C-C chemokine receptor type 4 (Homo sapiens, UniProt P51679).
T4 sequence (P51679 whole entry): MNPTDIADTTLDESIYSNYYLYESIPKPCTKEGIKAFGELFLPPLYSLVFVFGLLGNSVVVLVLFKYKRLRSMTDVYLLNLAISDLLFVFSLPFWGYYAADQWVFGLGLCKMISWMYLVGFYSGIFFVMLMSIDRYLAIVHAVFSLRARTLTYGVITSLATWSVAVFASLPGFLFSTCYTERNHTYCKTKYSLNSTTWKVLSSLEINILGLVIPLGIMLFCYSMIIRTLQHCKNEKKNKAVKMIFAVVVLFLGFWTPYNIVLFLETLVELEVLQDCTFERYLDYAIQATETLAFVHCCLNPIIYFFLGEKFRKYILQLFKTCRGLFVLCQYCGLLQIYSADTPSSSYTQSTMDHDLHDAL
Briefly: Displacement of radiolabeled TARC from CCR4 receptor.

The nature of data set [18]: Cmax in rat. Conditions: in vivo. It counts as ADME, organism-based.
For data set [19], the system named is Canis familiaris. The data set is described as follows: Half life in dog at 5 mg/kg, iv. The data set is classed as ADME, organism-based, Canis lupus familiaris. More on the design: dose 5 mg/kg, route intravenous. The settings on record: in vivo.
The target of data set [20] is C-C chemokine receptor type 2 (Homo sapiens, UniProt P41597). Briefly: Displacement of radiolabeled MCP1 from CCR2b receptor.
Data set [21] deals with C-C chemokine receptor type 5 (Homo sapiens, UniProt P51681). The data set is described as follows: Displacement of radiolabeled MIP1beta from CCR5 receptor.
The nature of data set [22]: Cmax in dog. The data set is classed as ADME, organism-based, Canis lupus familiaris. The settings on record: in vivo.
Data set [23] relates to Human immunodeficiency virus 1. The data set is described as follows: Antiviral activity against HIV1 NL4.3 infected in human MT4 cells assessed as inhibition of virus-induced cytopathicity in presence of 10% human serum. The data set is classed as functional, organism-based. Conditions: Human immunodeficiency virus 1, NL4.3, MT4.
The nature of data set [24]: Oral bioavailability in rat at 100 mg/kg. Conditions: in vivo. It counts as ADME, organism-based.
Data set [25] is described as follows: Oral bioavailability in dog at 6 mg/kg. It counts as ADME, organism-based, Canis lupus familiaris. The settings on record: in vivo.
For data set [26], the system named is Rattus norvegicus. Briefly: Volume of distribution in rat at 5 mg/kg, iv. It counts as ADME, organism-based. Also on record: dose 5 mg/kg, route intravenous. The settings on record: in vivo.
The test system of data set [27] is Rattus norvegicus. The data set is described as follows: Half life in rat at 5 mg/kg, iv. The settings on record: in vivo. Also on record: dose 5 mg/kg, route intravenous. It counts as ADME, organism-based.

Sequence of C-C chemokine receptor type 2 (P41597 whole entry): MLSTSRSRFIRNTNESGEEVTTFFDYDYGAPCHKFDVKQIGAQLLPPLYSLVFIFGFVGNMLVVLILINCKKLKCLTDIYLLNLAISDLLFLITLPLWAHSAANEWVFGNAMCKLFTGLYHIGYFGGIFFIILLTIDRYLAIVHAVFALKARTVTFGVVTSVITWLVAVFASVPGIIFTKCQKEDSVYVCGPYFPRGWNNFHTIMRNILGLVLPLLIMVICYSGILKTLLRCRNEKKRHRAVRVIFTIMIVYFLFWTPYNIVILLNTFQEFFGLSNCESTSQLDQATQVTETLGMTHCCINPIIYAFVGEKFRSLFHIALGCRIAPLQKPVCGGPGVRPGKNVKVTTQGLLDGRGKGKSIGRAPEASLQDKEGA
Sequence of C-C chemokine receptor type 5 (P51681 whole entry): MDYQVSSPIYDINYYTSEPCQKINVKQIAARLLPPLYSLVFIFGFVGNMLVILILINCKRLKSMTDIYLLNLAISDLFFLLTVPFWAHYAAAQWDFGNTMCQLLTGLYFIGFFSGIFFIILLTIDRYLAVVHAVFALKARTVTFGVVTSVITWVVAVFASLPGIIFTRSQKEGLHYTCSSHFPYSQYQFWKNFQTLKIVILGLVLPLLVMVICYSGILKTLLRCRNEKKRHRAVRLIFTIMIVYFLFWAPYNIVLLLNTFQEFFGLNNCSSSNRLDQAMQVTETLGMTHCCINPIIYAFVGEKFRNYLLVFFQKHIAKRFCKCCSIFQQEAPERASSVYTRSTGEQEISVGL
Sequence of C-X-C chemokine receptor type 4 (P61073 whole entry): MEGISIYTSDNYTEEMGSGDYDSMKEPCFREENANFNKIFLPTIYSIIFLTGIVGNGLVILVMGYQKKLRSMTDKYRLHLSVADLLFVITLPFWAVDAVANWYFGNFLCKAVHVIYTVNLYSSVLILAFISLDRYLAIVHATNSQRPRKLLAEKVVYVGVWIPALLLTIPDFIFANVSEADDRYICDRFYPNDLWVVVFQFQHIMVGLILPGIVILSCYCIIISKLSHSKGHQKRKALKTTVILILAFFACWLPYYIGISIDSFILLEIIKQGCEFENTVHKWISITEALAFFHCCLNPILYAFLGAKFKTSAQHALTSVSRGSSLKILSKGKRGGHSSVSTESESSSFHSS

Regarding `c1ccc(CNCc2ccc(CN(Cc3nc4ccccc4[nH]3)C3CCCc4cccnc43)cc2)nc1` (stereo not drawn), the IC50 (in general, the concentration at which inhibition is half-maximal) came to 60 nM in data set [1], 250 nM in data set [2], 277 nM in data set [3] and 60 nM in data set [6]. For the same compound, in data set [4], the Ratio turned out to be 4. For the same compound, the CC50 (in general, the concentration giving 50% cytotoxicity) in data set [5] came to 23000 nM. Besides, the “Ratio IC50” value in data set [7] was determined as 5.

On to `c1ccc(CNCc2ccc(CN(Cc3nc4ccccc4[nH]3)[C@H]3CCCc4cccnc43)cc2)nc1`, for which the Vd (usually a proportionality between amount in the body and measured concentration, not a real space) in data set [8] amounted to 17.5 L/kg; in data set [10], 5.5 L/kg. Besides, the bioavailability – broadly, dose-corrected exposure relative to a reference, in per cent – was 55% in [9] and 48% in [14]. The IC90 (in general, the concentration needed for an effect of 90%) in data set [1] is 108 nM; in data set [3] it was 559 nM. Moreover, the IC50 is 120 nM in data set [2]; above 10000 nM in [12]; above 10000 nM in data set [13]; 30 nM in data set [6]; above 10000 nM in data set [15]; 81 nM in data set [16]. Also, the IC50 in [17] is above 10000 nM; in [20] it was above 10000 nM; in data set [21], above 10000 nM; in data set [23] it was 69 nM. Besides, the t1/2 was 2.9 h in data set [11] and 5.7 h in data set [19]. Moreover, the values for the Cmax in [18] and in data set [22] were 4500 ng/mL and 800 ng/mL, respectively.

Regarding `NCCCCN(Cc1nc2ccccc2[nH]1)[C@H]1CCCc2cccnc21` [MAVORIXAFOR], the IC50 was 9 nM in data set [3]; above 10000 nM in data set [12]; above 10000 nM in data set [13]; 2 nM in data set [6]; above 10000 nM in data set [15]; above 10000 nM in data set [17]. Moreover, the IC50 in [20] is above 10000 nM; in data set [21] it was above 10000 nM; in data set [23], 16 nM. Also, the IC90 in [3] amounted to 26 nM. Also, the bioavailability turned out to be 22% in data set [24] and 80% in data set [25]. The Cmax – broadly, the peak of the concentration-time curve – in [18] is 1200 ng/mL; in data set [22] it was 1700 ng/mL. The compound also registered a Vd in data set [26] of 14.3 L/kg. Besides, the t1/2 in data set [27] amounted to 3.5 h.
